Reference: the NIST ThermoML archive (doi:10.1021/je900530f)
Numbers after ± are expanded uncertainties.

Conditions: Liquid

| SMILES | vapor or sublimation pressure (313.15 K) [kPa] | vapor or sublimation pressure (323.15 K) [kPa] | vapor or sublimation pressure (333.15 K) [kPa] | vapor or sublimation pressure (338.15 K) [kPa] |
| --- | --- | --- | --- | --- |
| CCC(C)O (stereo not given) [butan-2-ol] | 5.83 ± 0.18 | 10.48 ± 0.24 | 18.2 ± 0.33 |  |
| CCC(C)(C)O [2-methylbutan-2-ol] | 5.69 ± 0.24 | 10.41 ± 0.32 | 17.87 ± 0.43 | 22.87 ± 0.51 |
| CCCC(C)O (stereo not given) [pentan-2-ol] | 2.13 ± 0.14 | 4.16 ± 0.16 | 7.57 ± 0.2 | 9.99 ± 0.23 |
| CCCCCC [hexane] | 37.04 ± 0.55 | 53.91 ± 0.74 | 76.32 ± 1 | 89.92 ± 1.2 |
